# Measurements reported in US9908868B2, “Isoindolinone compounds as GPR119 modulators for the treatment of diabetes, obesity, dyslipidemia and related disorders” (SANOFI, priority 2014, dated 2018).
# Target: T1, human GPR119 (Homo sapiens, UniProt Q8TDV5)
# T1 construct: expressed in transfected cells
# T1 sequence (Q8TDV5 1-335): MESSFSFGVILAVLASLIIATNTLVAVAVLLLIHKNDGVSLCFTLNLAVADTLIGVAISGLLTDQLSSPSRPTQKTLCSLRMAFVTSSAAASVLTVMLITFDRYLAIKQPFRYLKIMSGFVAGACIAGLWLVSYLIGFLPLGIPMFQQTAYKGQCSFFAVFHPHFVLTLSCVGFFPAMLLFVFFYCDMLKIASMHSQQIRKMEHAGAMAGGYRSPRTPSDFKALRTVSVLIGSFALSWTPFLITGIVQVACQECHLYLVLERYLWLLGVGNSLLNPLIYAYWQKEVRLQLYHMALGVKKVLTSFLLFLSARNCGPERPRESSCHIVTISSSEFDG
# Assay: Functional cellular assay measuring GPR119-mediated cAMP release (HTRF) in HEK-293 cells stably expressing recombinant human GPR119
# Type: cell-based
# Settings: cAMP response, cell line expressing human GPR119, 30 minutes at room temperature
# Outline: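 HEK-293 cells stably expressing recombinant human GPR119, suspended at 400000 cells/mL in HBSS/20 mM HEPES/0.1% BSA/2 mM IBMX, exposed to compound for 30 minutes at room temperature. cAMP detected by HTRF (665/620 nm ratio) after 1 h with reagents in lysis buffer. EC50 taken as concentration giving 50% of maximal activation.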
row,EC50,Structure (SMILES)
1,106 nM,"CN(C)C(=O)CN1Cc2ccc(N3CC[C@@H](Oc4ccc(C(=O)c5ccc(F)cc5)nc4)C3=O)cc2C1=O [Example 2-61, 2-[6-[(3R)-3-[[6-(4-fluorobenzoyl)-3-pyridyl]oxy]-2-oxo-pyrrolidin-1-yl]-1-oxo-isoindolin-2-yl]-N,N-dimethyl-acetamide]"
2,59 nM,"CN(C)C(=O)CN1Cc2ccc(N3CC[C@@H](Oc4ccc(C(=O)C5CC5)c(F)c4)C3=O)cc2C1=O [Example 2-62, 2-[6-[(3R)-3-[4-(cyclopropanecarbonyl)-3-fluoro-phenoxy]-2-oxo-pyrrolidin-1-yl]-1-oxo-isoindolin-2-yl]-N,N-dimethyl-acetamide]"
3,98 nM,"CN(C)C(=O)CN1Cc2ccc(N3CC[C@@H](Oc4ccc(C(=O)C5CC(F)(F)C5)cc4)C3=O)cc2C1=O [Example 2-63, 2-[6-[(3R)-3-[4-(3,3-difluorocyclobutanecarbonyl)phenoxy]-2-oxo-pyrrolidin-1-yl]-1-oxo-isoindolin-2-yl]-N,N-dimethyl-acetamide]"
4,38 nM,"CN(C)C(=O)CN1Cc2ccc(N3CC[C@@H](Oc4ccc(-c5ncc(F)s5)cc4)C3=O)cc2C1=O [Example 2-64, 2-[6-[(3R)-3-[4-(5-fluorothiazol-2-yl)phenoxy]-2-oxo-pyrrolidin-1-yl]-1-oxo-isoindolin-2-yl]-N,N-dimethyl-acetamide]"
5,125 nM,"CN(C)C(=O)CN1Cc2ccc(N3CC[C@@H](Oc4ccc(C(=O)C5CC5(F)F)cc4)C3=O)cc2C1=O (stereo partly drawn) [Example 2-65, 2-[6-[(3R)-3-[4-(2,2-difluorocyclopropanecarbonyl)phenoxy]-2-oxo-pyrrolidin-1-yl]-1-oxo-isoindolin-2-yl]-N,N-dimethyl-acetamide]"
6,52 nM,"CN(C)C(=O)CN1Cc2ccc(N3CC[C@@H](Oc4ccc(C(=O)CCC(F)(F)F)cc4)C3=O)cc2C1=O [Example 2-66, N,N-dimethyl-2-[1-oxo-6-[(3R)-2-oxo-3-[4-(4,4,4-trifluorobutanoyl)phenoxy]pyrrolidin-1-yl]isoindolin-2-yl]acetamide]"
7,1050 nM,"O=C(O)CN1Cc2c(F)cc(N3CC[C@@H](Oc4ccc(OCC5CC5)nc4)C3=O)cc2C1=O [Example 3-01, 2-[6-[(3R)-3-[[6-(cyclopropylmethoxy)-3-pyridyl]oxy]-2-oxo-pyrrolidin-1-yl]-4-fluoro-1-oxo-isoindolin-2-yl]acetic acid]"
8,443 nM,"O=C(O)CN1Cc2ccc(N3CC[C@@H](Oc4ccc(OCC5CC5)nc4)C3=O)cc2C1=O [Example 3-02, 2-[6-[(3R)-3-[[6-(cyclopropylmethoxy)-3-pyridyl]oxy]-2-oxo-pyrrolidin-1-yl]-1-oxo-isoindolin-2-yl]acetic acid]"
9,87 nM,"O=C(O)CN1Cc2c(F)cc(N3CC[C@@H](Oc4ccc(OCCC5CC5)nc4)C3=O)cc2C1=O [Example 3-03, 2-[6-[(3R)-3-[[6-(2-cyclopropylethoxy)-3-pyridyl]oxy]-2-oxo-pyrrolidin-1-yl]-4-fluoro-1-oxo-isoindolin-2-yl]acetic acid]"
10,807 nM,"O=C(O)CNC(=O)CN1Cc2ccc(N3CC[C@@H](Oc4ccc(OCC5CC5)nc4)C3=O)cc2C1=O [Example 3-04, 2-[[2-[6-[(3R)-3-[[6-(cyclopropylmethoxy)-3-pyridyl]oxy]-2-oxo-pyrrolidin-1-yl]-1-oxo-isoindolin-2-yl]acetyl]amino]acetic acid]"
11,544 nM,"O=C(O)CN1Cc2ccc(N3CC[C@@H](Oc4ccc(OCC(F)(F)F)nc4)C3=O)cc2C1=O [Example 3-05, 2-[1-oxo-6-[(3R)-2-oxo-3-[[6-(2,2,2-trifluoroethoxy)-3-pyridyl]oxy]pyrrolidin-1-yl]isoindolin-2-yl]acetic acid]"
12,106 nM,"O=C(CN1Cc2ccc(N3CC[C@@H](Oc4ccc(OCC5CC5)nc4)C3=O)cc2C1=O)N1CCCC1 [Example 4-01, 6-[(3R)-3-[[6-(cyclopropylmethoxy)-3-pyridyl]oxy]-2-oxo-pyrrolidin-1-yl]-2-(2-oxo-2-pyrrolidin-1-yl-ethyl)isoindolin-1-one]"
13,144 nM,"COCCNC(=O)CN1Cc2ccc(N3CC[C@@H](Oc4ccc(OCC5CC5)nc4)C3=O)cc2C1=O [Example 4-02, 2-[6-[(3R)-3-[[6-(cyclopropylmethoxy)-3-pyridyl]oxy]-2-oxo-pyrrolidin-1-yl]-1-oxo-isoindolin-2-yl]-N-(2-methoxyethyl)acetamide]"
14,206 nM,"O=C(CN1Cc2ccc(N3CC[C@@H](Oc4ccc(OCC5CC5)nc4)C3=O)cc2C1=O)N1CCC(O)CC1 [Example 4-03, 6-[(3R)-3-[[6-(cyclopropylmethoxy)-3-pyridyl]oxy]-2-oxo-pyrrolidin-1-yl]-2-[2-(4-hydroxy-1-piperidyl)-2-oxo-ethyl]isoindolin-1-one]"
15,197 nM,"O=C(CN1Cc2ccc(N3CC[C@@H](Oc4ccc(OCC5CC5)nc4)C3=O)cc2C1=O)N1CC(O)C1 [Example 4-04, 6-[(3R)-3-[[6-(cyclopropylmethoxy)-3-pyridyl]oxy]-2-oxo-pyrrolidin-1-yl]-2-[2-(3-hydroxyazetidin-1-yl)-2-oxo-ethyl]isoindolin-1-one]"
16,249 nM,"O=C(CN1Cc2ccc(N3CC[C@@H](Oc4ccc(OCC5CC5)nc4)C3=O)cc2C1=O)NCCO [Example 4-05, 2-[6-[(3R)-3-[[6-(cyclopropylmethoxy)-3-pyridyl]oxy]-2-oxo-pyrrolidin-1-yl]-1-oxo-isoindolin-2-yl]-N-(2-hydroxyethyl)acetamide]"
17,281 nM,"CN(CCO)C(=O)CN1Cc2ccc(N3CC[C@@H](Oc4ccc(OCC5CC5)nc4)C3=O)cc2C1=O [Example 4-06, 2-[6-[(3R)-3-[[6-(cyclopropylmethoxy)-3-pyridyl]oxy]-2-oxo-pyrrolidin-1-yl]-1-oxo-isoindolin-2-yl]-N-(2-hydroxyethyl)-N-methyl-acetamide]"
18,163 nM,"NC(=O)CN1Cc2ccc(N3CC[C@@H](Oc4ccc(OCC5CC5)nc4)C3=O)cc2C1=O [Example 4-07, 2-[6-[(3R)-3-[[6-(cyclopropylmethoxy)-3-pyridyl]oxy]-2-oxo-pyrrolidin-1-yl]-1-oxo-isoindolin-2-yl]acetamide]"
19,168 nM,"O=C(CN1Cc2ccc(N3CC[C@@H](Oc4ccc(OCC5CC5)nc4)C3=O)cc2C1=O)NC1CC1 [Example 4-08, N-cyclopropyl-2-[6-[(3R)-3-[[6-(cyclopropylmethoxy)-3-pyridyl]oxy]-2-oxo-pyrrolidin-1-yl]-1-oxo-isoindolin-2-yl]acetamide]"
20,107 nM,"CNC(=O)CN1Cc2ccc(N3CC[C@@H](Oc4ccc(OCC5CC5)nc4)C3=O)cc2C1=O [Example 4-09, 2-[6-[(3R)-3-[[6-(cyclopropylmethoxy)-3-pyridyl]oxy]-2-oxo-pyrrolidin-1-yl]-1-oxo-isoindolin-2-yl]-N-methyl-acetamide]"
21,208 nM,"O=C(CN1Cc2ccc(N3CC[C@@H](Oc4ccc(Oc5ccc(F)cc5)nc4)C3=O)cc2C1=O)N1CC(O)C1 [Example 4-10, 6-[(3R)-3-[[6-(4-fluorophenoxy)-3-pyridyl]oxy]-2-oxo-pyrrolidin-1-yl]-2-[2-(3-hydroxyazetidin-1-yl)-2-oxo-ethyl]isoindolin-1-one]"
22,218 nM,"O=C(CN1Cc2ccc(N3CC[C@@H](Oc4ccc(Oc5ccc(F)cc5)nc4)C3=O)cc2C1=O)N1CCC(O)CC1 [Example 4-11, 6-[(3R)-3-[[6-(4-fluorophenoxy)-3-pyridyl]oxy]-2-oxo-pyrrolidin-1-yl]-2-[2-(4-hydroxy-1-piperidyl)-2-oxo-ethyl]isoindolin-1-one]"
23,297 nM,"CN(CCO)C(=O)CN1Cc2ccc(N3CC[C@@H](Oc4ccc(Oc5ccc(F)cc5)nc4)C3=O)cc2C1=O [Example 4-12, 2-[6-[(3R)-3-[[6-(4-fluorophenoxy)-3-pyridyl]oxy]-2-oxo-pyrrolidin-1-yl]-1-oxo-isoindolin-2-yl]-N-(2-hydroxyethyl)-N-methyl-acetamide]"
24,326 nM,"CCOc1ccc(O[C@@H]2CCN(c3cc(F)c4c(c3)C(=O)N(CC(=O)NC)C4)C2=O)cn1 [Example 4-13, 2-[6-[(3R)-3-[(6-ethoxy-3-pyridyl)oxy]-2-oxo-pyrrolidin-1-yl]-4-fluoro-1-oxo-isoindolin-2-yl]-N-methyl-acetamide]"
25,288 nM,"CCOc1ccc(O[C@@H]2CCN(c3cc(F)c4c(c3)C(=O)N(CC(=O)N(CC)CC)C4)C2=O)cn1 [Example 4-14, 2-[6-[(3R)-3-[(6-ethoxy-3-pyridyl)oxy]-2-oxo-pyrrolidin-1-yl]-4-fluoro-1-oxo-isoindolin-2-yl]-N,N-diethyl-acetamide]"
26,547 nM,"CCOc1ccc(O[C@@H]2CCN(c3cc(F)c4c(c3)C(=O)N(CC(=O)NCCO)C4)C2=O)cn1 [Example 4-15, 2-[6-[(3R)-3-[(6-ethoxy-3-pyridyl)oxy]-2-oxo-pyrrolidin-1-yl]-4-fluoro-1-oxo-isoindolin-2-yl]-N-(2-hydroxyethyl)acetamide]"
27,271 nM,"CCOc1ccc(O[C@@H]2CCN(c3cc(F)c4c(c3)C(=O)N(CC(N)=O)C4)C2=O)cn1 [Example 4-16, 2-[6-[(3R)-3-[(6-ethoxy-3-pyridyl)oxy]-2-oxo-pyrrolidin-1-yl]-4-fluoro-1-oxo-isoindolin-2-yl]acetamide]"
28,191 nM,"CCOc1ccc(O[C@@H]2CCN(c3cc(F)c4c(c3)C(=O)N(CC(=O)N3CCCC3)C4)C2=O)cn1 [Example 4-17, 6-[(3R)-3-[(6-ethoxy-3-pyridyl)oxy]-2-oxo-pyrrolidin-1-yl]-4-fluoro-2-(2-oxo-2-pyrrolidin-1-yl-ethyl)isoindolin-1-one]"
